The results in this text go back to PMC3900303 (Toxicology and applied pharmacology, 2013).

Like-named read-outs stand apart in the source and are kept apart here.

Data set [1] concerns Human iPSC-derived cardiomyocytes. In words: High-throughput cardiomyocyte beating assay. The following applies: for effect on beating parameters at 30 minutes: 30 min exposure; for impact on the shape of the peaks: compounds known to prolong the QT interval; for chronotrope effect / effect on the beating rate / beat rate / effect on spacing between peaks and regularity: general clustering analysis of concentration-response; for effect on the beating rate / beat rate: 3 nM to 30 μM; for effect on beating: at 3 μM; for hormesis-like concentration effect on beating rate: low vs high concentrations.

The test system is the same in data set [2].
For data set [3] the test system is unchanged. Put plainly: Cell viability imaging. Format: cell-based. Conditions: evaluated 24 hrs after treatment.

Turning to `O=c1[nH]cc(F)c(=O)[nH]1` [5-fluoracil], the “effect on beating parameters at 30 minutes” value (“effect on beating parameters” for short) in data set [1] is “did not have an effect”.

With `CCCCc1oc2ccccc2c1C(=O)c1cc(I)c(OCCN(CC)CC)c(I)c1` [amiodarone], in data set [1], the “impact on the shape of the peaks” value was “profound impact” and the chronotrope effect result was “negative chronotrope effect”.

For `COc1ccc(CCN2CCC(Nc3nc4ccccc4n3Cc3ccc(F)cc3)CC2)cc1` [astemizol], the “effect on the beating rate / beat rate” value in data set [1] is reported as “strongly inhibited”.

In the case of `CC(C)COCC(CN(Cc1ccccc1)c1ccccc1)N1CCCC1` (stereo not drawn) [bepridil], in data set [1], the “effect on the beating rate / beat rate” value was “strongly inhibited”.

Take `CCCCN1CCCCC1C(=O)Nc1c(C)cccc1C` (stereo not drawn) [bupivacaine]: the beating profile result in data set [1] (multi-parametric peak pattern) is recorded as “appearance of wide peaks”.

Regarding `N.N.[Cl][Pt][Cl]` [cisplatin, cis-diamineplatinum(II)dichloride], the “effect on beating parameters” value in data set [2] was “did not have an effect”.

With `COc1cccc2c1C(=O)c1c(O)c3c(c(O)c1C2=O)C[C@@](O)(C(C)=O)C[C@@H]3O[C@H]1C[C@H](N)[C@H](O)[C@H](C)O1` [daunorubicin], the “effect on beating parameters” value in data set [1] was “did not have an effect”.

As for `CNCCCN1c2ccccc2CCc2ccccc21` [desipramine], in data set [1], the “impact on the shape of the peaks” value was “profound impact”.

With `O=C(O)Cc1ccccc1Nc1c(Cl)cccc1Cl` [diclofenac], the “effect on beating parameters” value in data set [1] is “did not have an effect”.

Turning to `C[C@H]1O[C@@H](O[C@H]2[C@@H](O)C[C@H](O[C@H]3[C@@H](O)C[C@H](O[C@H]4CC[C@@]5(C)[C@H](CC[C@@H]6[C@@H]5CC[C@]5(C)[C@@H](C7=CC(=O)OC7)CC[C@]65O)C4)O[C@@H]3C)O[C@@H]2C)C[C@H](O)[C@@H]1O` [digitoxin], the effect on beating entry in data set [1] is given as “blocked beating completely”.

As to `C[C@H]1O[C@@H](O[C@H]2[C@@H](O)C[C@H](O[C@H]3[C@@H](O)C[C@H](O[C@H]4CC[C@@]5(C)[C@H](CC[C@@H]6[C@@H]5C[C@@H](O)[C@]5(C)[C@@H](C7=CC(=O)OC7)CC[C@]65O)C4)O[C@@H]3C)O[C@@H]2C)C[C@H](O)[C@@H]1O` [digoxin], in data set [1], the effect on beating entry is listed as “blocked beating completely” and the “hormesis-like concentration effect on beating rate” value is “increased at low concentrations, but decreased or completely stopped at high doses”.

As for `COc1ccc([C@@H]2Sc3ccccc3N(CCN(C)C)C(=O)[C@@H]2OC(C)=O)cc1` [diltiazem], in data set [1], the “effect on the beating rate / beat rate” value is recorded as “strongly inhibited”.

In the case of `CC(C)N(CCC(C(N)=O)(c1ccccc1)c1ccccn1)C(C)C` (stereo not drawn) [disopyramide], the “effect on cell viability” value in data set [3] is recorded as “No effect”. Besides, in data set [1] (30 min exposure time-point), the “effect on the beat rate” value is “no effect”. Further, the “effect on the peak shape parameters” value in data set [1] (30 min exposure time-point (Figure 2)) is listed as “clear concentration-dependent effect”. In data set [1], the “impact on the shape of the peaks” value is “profound impact”; the “effect on spacing between peaks and regularity” value is listed as “affected”; the “effect on the beating rate / beat rate” value is “little effect”.

Turning to `COc1cccc2c1C(=O)c1c(O)c3c(c(O)c1C2=O)C[C@@](O)(C(=O)CO)C[C@@H]3O[C@H]1C[C@H](N)[C@H](O)[C@H](C)O1` [doxorubicin], the “effect on beating parameters” value in data set [1] was “did not have an effect”.

With `CC(=O)O.O=C(NCC1CCCCN1)c1cc(OCC(F)(F)F)ccc1OCC(F)(F)F` (stereo not drawn) [flecainid acetate], in data set [1], the “effect on spacing between peaks and regularity” value is “affected”; the “effect on the beating rate / beat rate” value was “little effect”.

On to `CC(C)Cc1ccc(C(C)C(=O)O)cc1` (stereo not drawn) [ibuprofen], for which, in data set [1], the “effect on beating parameters” value is given as “did not have an effect”.

Regarding `CN(C)CCCN1c2ccccc2CCc2ccccc21` [imipramine], in data set [1], the “impact on the shape of the peaks” value is given as “profound impact”.

As to `CC(C)NCC(O)c1ccc(O)c(O)c1` (stereo not drawn) [isoproterenol], in data set [1], the chronotrope effect result is recorded as “positive chronotrope effect”.

Take `CCN(CC)CC(=O)Nc1c(C)cccc1C` [lidocaine]: in data set [1], the “effect on spacing between peaks and regularity” value is listed as “affected”; the “effect on the beating rate / beat rate” value is listed as “little effect”.

`Cc1cnc(NC(=O)C2=C(O)c3ccccc3S(=O)(=O)N2C)s1` [meloxicam]: the “effect on beating parameters” value in data set [1] is given as “did not have an effect”.

As to `COC(=O)C1=C(C)NC(C)=C(C(=O)OCCN(C)Cc2ccccc2)C1c1cccc([N+](=O)[O-])c1` (stereo not drawn) [nicardipine], the “effect on the beating rate / beat rate” value in data set [1] is on record as “strongly inhibited”.

As for `CC(C)NCC(O)COc1cccc2[nH]ccc12` (stereo not drawn) [pindolol], in data set [1], the chronotrope effect entry was “negative chronotrope effect”.

In the case of `CCc1ccc(CCOc2ccc(CC3SC(=O)NC3=O)cc2)nc1` (stereo not drawn) [pioglitazone], the “effect on beating parameters” value in data set [1] is on record as “did not have an effect”.

Consider `CCN(CC)CCNC(=O)c1ccc(N)cc1` [procainamide], for which the “impact on the shape of the peaks” value in data set [1] was “profound impact”.

As for `C=C[C@H]1C[N@@]2CC[C@H]1C[C@@H]2[C@@H](O)c1ccnc2ccc(OC)cc12` [quinidine], the “impact on the shape of the peaks” value in data set [1] is on record as “profound impact”.

`CS(=O)(=O)c1ccc(C2=C(c3ccccc3)C(=O)OC2)cc1` [rofecoxib]: the “effect on beating parameters” value in data set [1] is reported as “did not have an effect”.

With `CN(CCOc1ccc(CC2SC(=O)NC2=O)cc1)c1ccccn1` (stereo not drawn) [rosiglitazone], the “effect on beating parameters” value in data set [1] was “did not have an effect”.

Turning to `OCc1cc(C(O)CNCCCCCCOCCCCc2ccccc2)ccc1O` (stereo not drawn) [salmeterol], the “hormesis-like concentration effect on beating rate” value in data set [1] was “increased at low concentrations, but decreased or completely stopped at high doses”.

On to `CC(C)NCC(O)c1ccc(NS(C)(=O)=O)cc1` (stereo not drawn) [sotalol], for which the “impact on the shape of the peaks” value in data set [1] is on record as “profound impact”.

With `CC(C)(C)c1ccc(C(O)CCCN2CCC(C(O)(c3ccccc3)c3ccccc3)CC2)cc1` (stereo not drawn) [terfenadine], in data set [1], the “effect on the beating rate / beat rate” value is reported as “strongly inhibited”.
